Source: article PMC10937199 (ESMO Open, 2024)

Experiments:
Format in all cases: in vivo, human
advanced solid tumors [1] = assay: Best overall response per RECIST version 1.1, Part B
advanced solid tumors [2] = assay: Best overall response per RECIST version 1.1, Part FE
[3] = tested on: patients with advanced solid tumors; assay: Safety; settings: Part A

Structure (SMILES): COc1ccc([C@@H](O)c2cc(-c3ncnc4cc(N5CCOCC5)ccc34)c(F)cc2Cl)nn1 [Peposertib]
- Patients with complete response (CR) or partial response (PR) (advanced solid tumors [1]): no patients
- Best overall response of stable disease (SD) or non-CR/non-PD (advanced solid tumors [1]; all dose levels): 31.6%
- Best overall response of stable disease (SD) or non-CR/non-PD (advanced solid tumors [2]; all dose levels): 33.3%
- Patients with a PR (advanced solid tumors [2]; all patients, response at 200 mg b.i.d.): one of nine
- IRR ([3]; 100 mg b.i.d., all grade): 0 n (%)
- Immune-related AE ([3]; 100 mg b.i.d., all grade): 0 n (%)
- Serious TEAE ([3]; 100 mg b.i.d., all grade): 0 n (%)
- Serious TEAE, peposertib related ([3]; 100 mg b.i.d., all grade): 0 n (%)
- Serious TEAE, treatment related ([3]; 100 mg b.i.d., all grade): 0 n (%)
- TEAE ([3]; 100 mg b.i.d., all grade): 3 (75.0) n (%)
- TEAE, peposertib related ([3]; 100 mg b.i.d., all grade): 2 (50.0) n (%)
- TEAE, treatment related ([3]; 100 mg b.i.d., all grade): 3 (75.0) n (%)
- TEAEs leading to death ([3]; 100 mg b.i.d., all grade): 0 n (%)
- Treatment-related AE leading to death ([3]; 100 mg b.i.d., all grade): 0 n (%)
- IRR ([3]; 100 mg b.i.d., grade ≥3): 0 n (%)
- Immune-related AE ([3]; 100 mg b.i.d., grade ≥3): 0 n (%)
- Serious TEAE ([3]; 100 mg b.i.d., grade ≥3): 0 n (%)
- Serious TEAE, peposertib related ([3]; 100 mg b.i.d., grade ≥3): 0 n (%)
- Serious TEAE, treatment related ([3]; 100 mg b.i.d., grade ≥3): 0 n (%)
- TEAE ([3]; 100 mg b.i.d., grade ≥3): 0 n (%)
- TEAE, peposertib related ([3]; 100 mg b.i.d., grade ≥3): 0 n (%)
- TEAE, treatment related ([3]; 100 mg b.i.d., grade ≥3): 0 n (%)
- TEAEs leading to death ([3]; 100 mg b.i.d., grade ≥3): 0 n (%)
- Treatment-related AE leading to death ([3]; 100 mg b.i.d., grade ≥3): 0 n (%)
- Immune-related AE ([3]; 200 mg b.i.d., all grade): 2 (18.2) n (%)
- Serious TEAE ([3]; 200 mg b.i.d., all grade): 6 (54.5) n (%)
- Serious TEAE, peposertib related ([3]; 200 mg b.i.d., all grade): 0 n (%)
- Serious TEAE, treatment related ([3]; 200 mg b.i.d., all grade): 3 (27.3) n (%)
- TEAE ([3]; 200 mg b.i.d., all grade): 11 (100.0) n (%)
- TEAE, peposertib related ([3]; 200 mg b.i.d., all grade): 10 (90.9) n (%)
- TEAE, treatment related ([3]; 200 mg b.i.d., all grade): 10 (90.9) n (%)
- TEAEs leading to death ([3]; 200 mg b.i.d., all grade): 0 n (%)
- Treatment-related AE leading to death ([3]; 200 mg b.i.d., all grade): 0 n (%)
- IRR ([3]; 200 mg b.i.d., grade ≥3): 0 n (%)
- Immune-related AE ([3]; 200 mg b.i.d., grade ≥3): 2 (18.2) n (%)
- Serious TEAE ([3]; 200 mg b.i.d., grade ≥3): 6 (54.5) n (%)
- Serious TEAE, peposertib related ([3]; 200 mg b.i.d., grade ≥3): 0 n (%)
- Serious TEAE, treatment related ([3]; 200 mg b.i.d., grade ≥3): 3 (27.3) n (%)
- TEAE ([3]; 200 mg b.i.d., grade ≥3): 7 (63.6) n (%)
- TEAE, peposertib related ([3]; 200 mg b.i.d., grade ≥3): 2 (18.2) n (%)
- TEAE, treatment related ([3]; 200 mg b.i.d., grade ≥3): 4 (36.4) n (%)
- TEAEs leading to death ([3]; 200 mg b.i.d., grade ≥3): 0 n (%)
- Treatment-related AE leading to death ([3]; 200 mg b.i.d., grade ≥3): 0 n (%)
- Peposertib-related pneumonitis ([3]; 250 mg b.i.d.): 25.0%
- Serious TEAE: diarrhea ([3]; 250 mg b.i.d.): 2 n
- IRR ([3]; 250 mg b.i.d., all grade): 0 n (%)
- Immune-related AE ([3]; 250 mg b.i.d., all grade): 3 (75.0) n (%)
- Serious TEAE ([3]; 250 mg b.i.d., all grade): 4 (100.0) n (%)
- Serious TEAE, peposertib related ([3]; 250 mg b.i.d., all grade): 2 (50.0) n (%)
- Serious TEAE, treatment related ([3]; 250 mg b.i.d., all grade): 3 (75.0) n (%)
- TEAE ([3]; 250 mg b.i.d., all grade): 4 (100.0) n (%)
- TEAE, peposertib related ([3]; 250 mg b.i.d., all grade): 3 (75.0) n (%)
- TEAE, treatment related ([3]; 250 mg b.i.d., all grade): 3 (75.0) n (%)
- TEAEs leading to death ([3]; 250 mg b.i.d., all grade): 0 n (%)
- Treatment-related AE leading to death ([3]; 250 mg b.i.d., all grade): 0 n (%)
- IRR ([3]; 250 mg b.i.d., grade ≥3): 0 n (%)
- Immune-related AE ([3]; 250 mg b.i.d., grade ≥3): 2 (50.0) n (%)
- Serious TEAE ([3]; 250 mg b.i.d., grade ≥3): 4 (100.0) n (%)
- Serious TEAE, peposertib related ([3]; 250 mg b.i.d., grade ≥3): 2 (50.0) n (%)
- Serious TEAE, treatment related ([3]; 250 mg b.i.d., grade ≥3): 3 (75.0) n (%)
- TEAE ([3]; 250 mg b.i.d., grade ≥3): 4 (100.0) n (%)
- TEAE, peposertib related ([3]; 250 mg b.i.d., grade ≥3): 2 (50.0) n (%)
- TEAE, treatment related ([3]; 250 mg b.i.d., grade ≥3): 3 (75.0) n (%)
- TEAEs leading to death ([3]; 250 mg b.i.d., grade ≥3): 0 n (%)
- Treatment-related AE leading to death ([3]; 250 mg b.i.d., grade ≥3): 0 n (%)
- Serious TEAE: disease progression ([3]; 300 mg b.i.d.): 2 n
- IRR ([3]; 300 mg b.i.d., all grade): 0 n (%)
- Immune-related AE ([3]; 300 mg b.i.d., all grade): 2 (33.3) n (%)
- Serious TEAE ([3]; 300 mg b.i.d., all grade): 4 (66.7) n (%)
- Serious TEAE, peposertib related ([3]; 300 mg b.i.d., all grade): 0 n (%)
- Serious TEAE, treatment related ([3]; 300 mg b.i.d., all grade): 1 (16.7) n (%)
- TEAE ([3]; 300 mg b.i.d., all grade): 6 (100.0) n (%)
- TEAE, peposertib related ([3]; 300 mg b.i.d., all grade): 3 (50.0) n (%)
- TEAE, treatment related ([3]; 300 mg b.i.d., all grade): 4 (66.7) n (%)
- TEAEs leading to death ([3]; 300 mg b.i.d., all grade): 2 (33.3) n (%)
- Treatment-related AE leading to death ([3]; 300 mg b.i.d., all grade): 0 n (%)
- IRR ([3]; 300 mg b.i.d., grade ≥3): 0 n (%)
- Immune-related AE ([3]; 300 mg b.i.d., grade ≥3): 2 (33.3) n (%)
- Serious TEAE ([3]; 300 mg b.i.d., grade ≥3): 4 (66.7) n (%)
- Serious TEAE, peposertib related ([3]; 300 mg b.i.d., grade ≥3): 0 n (%)
- Serious TEAE, treatment related ([3]; 300 mg b.i.d., grade ≥3): 1 (16.7) n (%)
- TEAE ([3]; 300 mg b.i.d., grade ≥3): 5 (83.3) n (%)
- TEAE, peposertib related ([3]; 300 mg b.i.d., grade ≥3): 0 n (%)
- TEAE, treatment related ([3]; 300 mg b.i.d., grade ≥3): 2 (33.3) n (%)
- TEAEs leading to death ([3]; 300 mg b.i.d., grade ≥3): 2 (33.3) n (%)
- Treatment-related AE leading to death ([3]; 300 mg b.i.d., grade ≥3): 0 n (%)
- IRR ([3]; 400 mg b.i.d., all grade): 0 n (%)
- Immune-related AE ([3]; 400 mg b.i.d., all grade): 1 (25.0) n (%)
- Serious TEAE ([3]; 400 mg b.i.d., all grade): 4 (100.0) n (%)
- Serious TEAE, peposertib related ([3]; 400 mg b.i.d., all grade): 3 (75.0) n (%)
- Serious TEAE, treatment related ([3]; 400 mg b.i.d., all grade): 3 (75.0) n (%)
- TEAE ([3]; 400 mg b.i.d., all grade): 4 (100.0) n (%)
- TEAE, peposertib related ([3]; 400 mg b.i.d., all grade): 4 (100.0) n (%)
- TEAE, treatment related ([3]; 400 mg b.i.d., all grade): 4 (100.0) n (%)
- TEAEs leading to death ([3]; 400 mg b.i.d., all grade): 0 n (%)
- Treatment-related AE leading to death ([3]; 400 mg b.i.d., all grade): 0 n (%)
- IRR ([3]; 400 mg b.i.d., grade ≥3): 0 n (%)
- Immune-related AE ([3]; 400 mg b.i.d., grade ≥3): 1 (25.0) n (%)
- Serious TEAE ([3]; 400 mg b.i.d., grade ≥3): 4 (100.0) n (%)
- Serious TEAE, peposertib related ([3]; 400 mg b.i.d., grade ≥3): 3 (75.0) n (%)
- Serious TEAE, treatment related ([3]; 400 mg b.i.d., grade ≥3): 3 (75.0) n (%)
- TEAE ([3]; 400 mg b.i.d., grade ≥3): 4 (100.0) n (%)
- TEAE, peposertib related ([3]; 400 mg b.i.d., grade ≥3): 4 (100.0) n (%)
- TEAE, treatment related ([3]; 400 mg b.i.d., grade ≥3): 4 (100.0) n (%)
- TEAEs leading to death ([3]; 400 mg b.i.d., grade ≥3): 0 n (%)
- Treatment-related AE leading to death ([3]; 400 mg b.i.d., grade ≥3): 0 n (%)
- Discontinuation of all study treatments due to AEs ([3]; all dose levels): 11 (37.9%)
- Peposertib-related TEAE: fatigue ([3]; all dose levels): 8 (27.6%)
- Peposertib-related TEAE: nausea ([3]; all dose levels): 9 (31.0%)
- Peposertib-related TEAE: vomiting ([3]; all dose levels): 9 (31.0%)
